# Laboratory results published in patent publication US10919935B2, “Antimicrobial peptide derived from myxinidin peptide and uses thereof” (INDUSTRY-ACADEMIC COOPERATION FOUNDATION, CHOSUN UNIVERSITY, priority 2015, dated 2021).
# Residues, ends and D or L forms follow the SMILES beside them.
# What was measured:
# Type in all cases: cell-based
# [1] = system: Pseudomonas aeruginosa Isolated strain 3592
# Experimental: (§1) To compare the antimicrobial activity of the peptide produced by the method of Example 1, the inventors of the present invention measured the growth minimum inhibitory concentration (MIC), which is minimum concentration of the peptide showing no dissociation of bacterial cells.
# (§2) Specifically, the bacterial strain described in the following Table 2 was purchased and cultured in each medium to a mid-log phase. Then, after dilution to bacterial cell concentration of 2×10^5 cells/100 μl, the cells were inoculated to a microtiter plate (NUNC, USA). Thereafter, myxinidin 1, myxinidin 2, or myxinidin 3 peptides which have been synthesized in Example 1 above was diluted, 1/2 times for each, with BSA (bovine serum albumin) solution in a 96-well plate. After adding the cells to a plate, the cells were cultured for 12 hours at 37° C. By using a microtiter plate reader (Merck Elisa reader, Germany), the absorbance was measured at a wavelength of 600 nm to determine the MIC value of each bacterial strain. As a control group, myxinidin as a mother peptide was subjected to the same processes as above and the MIC value of each bacterial strain was obtained.
# [2] = system: Staphylococcus aureus CCARM 3114
# Experimental: as §1, §2
# [3] = system: Salmonella typhimurium CCARM 8009
# Experimental: as §1, §2
# [4] = system: Salmonella typhimurium CCARM 8013
# Experimental: as §1, §2
# [5] = system: Escherichia coli CCARM 1229
# Experimental: as §1, §2
# [6] = system: Listeria monocytogenes KCTC 3710
# Experimental: as §1, §2
# [7] = system: Pseudomonas aeruginosa Isolated strain 5018
# Experimental: as §1, §2
# [8] = system: Pseudomonas aeruginosa ATCC 27853
# Experimental: as §1, §2
# [9] = system: Escherichia coli ATCC 25922
# Experimental: as §1, §2
# [10] = system: Escherichia coli CCARM 1238
# Experimental: as §1, §2
# [11] = system: Staphylococcus aureus ATCC 25923
# Experimental: as §1, §2
# [12] = system: Staphylococcus aureus CCARM 3709
# Experimental: as §1, §2
# [13] = system: Salmonella typhimurium KCTC 1926
# Experimental: as §1, §2
# [14] = in vitro; conditions: human, NHK cells (normal human keratinocytes)
# Experimental: To determine the cytotoxicity of the peptide produced by the method of Example 1 in normal cell line, toxicity was measured by using NHK cells (Normal Human Keratinocyte cells).
# Specifically, NHK cells which have been cultured in Epilife medium with 60 μM calcium (Gibco, USA) containing 10% HKGS (Human Keratinocyte Growth Supplement) (Gibco, USA) were aliquoted in a 96-well plate to have 1×10^4 cells per well. After culturing them for 24 hours, the cells were subjected to a treatment with myxinidin, myxinidin 1, myxinidin 2, or myxinidin 3 peptide, each at concentration of 3.125, 6.25, 12.5, or 25.0 μM/well, followed by reaction for 24 hours in a 5% CO2 incubator. After the culture, a reaction solution containing 5 mg/ml MTT (Thiazolyl Blue Tetrazolium Bromide) dissolved in physiological saline (PBS) was added in an amount of 20 μl to each well and allowed to react for 4 hours. After that, the supernatant was removed, and, by dissolving MTT crystals that are formed by adding 200 μl of DMSO, the absorbance at 560 nm was measured to determine the cell survival ability.
compound,measurement,setting,value
"CC[C@H](C)[C@H](NC(=O)CN)C(=O)N[C@@H](Cc1c[nH]cn1)C(=O)N[C@@H](CC(=O)O)C(=O)N[C@H](C(=O)N[C@@H](CC(C)C)C(=O)N[C@@H](CCCCN)C(=O)N[C@@H](Cc1ccc(O)cc1)C(=O)NCC(=O)N[C@@H](CCCCN)C(=O)N1CCC[C@H]1C(=O)N[C@@H](CO)C(N)=O)[C@@H](C)CC [Myxinidin, GIHDILKYGKPS-NH2] (H-GIHDILKYGKPS-NH2)",Minimum growth inhibitory concentration,[1],>32 µM
same,Minimum growth inhibitory concentration,[2],>32 µM
same,Minimum growth inhibitory concentration,[3],>32 µM
same,Minimum growth inhibitory concentration,[4],>32 µM
same,Minimum growth inhibitory concentration,[5],>32 µM
same,Minimum growth inhibitory concentration,[6],>32 µM
same,Minimum growth inhibitory concentration,[7],>32 µM
same,Minimum growth inhibitory concentration,[8],>32 µM
same,Minimum growth inhibitory concentration,[9],>32 µM
same,Minimum growth inhibitory concentration,[10],>32 µM
same,Minimum growth inhibitory concentration,[11],>32 µM
same,Minimum growth inhibitory concentration,[12],>32 µM
same,Minimum growth inhibitory concentration,[13],>32 µM
same,"viability at 24 h, 3.125 µM",[14],100%
same,"viability at 24 h, 6.25 µM",[14],98%
same,"viability at 24 h, 12.5 µM",[14],98%
same,"viability at 24 h, 25 µM",[14],95%
